Data on one cell line can be found in the supplement of paper PMC10307832.

What all share (experiment): relative viability (nuclei count vs DMSO), 5 days (fraction); higher = more cells survive
Compound in the experiment “Etoposide + Linsitinib”: COc1cc([C@@H]2c3cc4c(cc3[C@@H](O[C@@H]3O[C@@H]5CO[C@@H](C)O[C@H]5[C@H](O)[C@H]3O)[C@H]3COC(=O)[C@H]23)OCO4)cc(OC)c1O [Etoposide] + C[C@]1(O)C[C@@H](c2nc(-c3ccc4ccc(-c5ccccc5)nc4c3)c3c(N)nccn32)C1 [Linsitinib] (partner 1 µM)
In short, it runs like this:
(§1)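 The day after seeding in 1536-well plates, lung cancer cell lines were treated by pin tool with a single drug, or with a fixed anchor-drug dose together with five library-drug doses (not always all listed) in √10 steps. After 5 days, a combined fix-and-stain solution (final 0.05% Triton X-100, 1% formaldehyde, 1 ug/ml Hoechst) was added. Nuclei counted on 4× images gave relative viability as treated counts over vehicle counts, reported as the median of duplicate plates.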

Compound in the experiment “Bleomycin + OSI-027”: CC1=C(N=C(N=C1N)[C@H](CC(=O)N)NC[C@@H](C(=O)N)N)C(=O)N[C@@H]([C@H](C2=CN=CN2)OC3C(C(C(C(O3)CO)O)O)OC4C(C(C(C(O4)CO)O)OC(=O)N)O)C(=O)N[C@H](C)[C@H]([C@H](C)C(=O)N[C@@H]([C@@H](C)O)C(=O)NCCC5=NC(=CS5)C6=NC(=CS6)C(=O)NCCC[S+](C)C)O [Bleomycin] + COc1cccc2cc(-c3nc([C@H]4CC[C@H](C(=O)O)CC4)n4ncnc(N)c34)[nH]c12 [OSI-027] (partner 0.5 µM)
The following applies: main component drawn. In short, it runs like this:
as §1

Compound in the experiment “Bleomycin + Vorinostat”: CC1=C(N=C(N=C1N)[C@H](CC(=O)N)NC[C@@H](C(=O)N)N)C(=O)N[C@@H]([C@H](C2=CN=CN2)OC3C(C(C(C(O3)CO)O)O)OC4C(C(C(C(O4)CO)O)OC(=O)N)O)C(=O)N[C@H](C)[C@H]([C@H](C)C(=O)N[C@@H]([C@@H](C)O)C(=O)NCCC5=NC(=CS5)C6=NC(=CS6)C(=O)NCCC[S+](C)C)O [Bleomycin] + O=C(CCCCCCC(=O)Nc1ccccc1)NO [Vorinostat] (partner 1 µM)
To be noted: main component drawn. In outline:
as §1

Compound in the experiment “Etoposide + Pictilisib”: COc1cc([C@@H]2c3cc4c(cc3[C@@H](O[C@@H]3O[C@@H]5CO[C@@H](C)O[C@H]5[C@H](O)[C@H]3O)[C@H]3COC(=O)[C@H]23)OCO4)cc(OC)c1O [Etoposide] + CS(=O)(=O)N1CCN(Cc2cc3nc(-c4cccc5[nH]ncc45)nc(N4CCOCC4)c3s2)CC1 [Pictilisib] (partner 1 µM)
In short, it runs like this:
as §1

On to UMC-11, for which the relative viability with Etoposide + Linsitinib (first compound 0.01 µM) was determined as 0.962; in the experiment with Etoposide + Linsitinib (first compound 0.03162 µM), 1.05; with Etoposide + Linsitinib (first compound 0.3162 µM) it was 0.493; with Etoposide + Linsitinib (first compound 1 µM) it was 0.302; with Bleomycin + OSI-027 (first compound 0.01 µM) it was 0.403; with Bleomycin + OSI-027 (first compound 0.03162 µM) it was 0.497. For the same cell line, the relative viability in the experiment with Bleomycin + OSI-027 (first compound 0.1 µM) amounted to 0.482; with Bleomycin + OSI-027 (first compound 0.3162 µM), 0.393; with Bleomycin + OSI-027 (first compound 1 µM), 0.353; with Bleomycin + Vorinostat (first compound 0.01 µM) it was 0.364; in the experiment with Bleomycin + Vorinostat (first compound 0.03162 µM), 0.346; in the experiment with Bleomycin + Vorinostat (first compound 0.1 µM) it was 0.311. Further, the relative viability came to 0.278 with Bleomycin + Vorinostat (first compound 0.3162 µM); 0.232 with Bleomycin + Vorinostat (first compound 1 µM); 0.837 in the experiment with Etoposide + Pictilisib (first compound 0.01 µM); 0.938 in the experiment with Etoposide + Pictilisib (first compound 0.03162 µM); 0.339 with Etoposide + Pictilisib (first compound 0.3162 µM); 0.194 with Etoposide + Pictilisib (first compound 1 µM).
